Results published in ChEMBL document CHEMBL1148851, “Chemoenzymatic synthesis and in vitro studies on the hydrolysis of antimicrobial monoglycosyl diglycerides by pancreatic lipase” (2007).
≈ marks a conversion by molar mass, not a printed value.

How the values were obtained:
Type in all cases: functional
Kluyveromyces marxianus = assay: Antifungal activity against Candida pseudotropicalis by dilution method
Pseudomonas aeruginosa = assay: Antibacterial activity against Pseudomonas aeruginosa ATCC 27753
Candida albicans = assay: Antifungal activity against Candida albicans by dilution method
Escherichia coli = assay: Antibacterial activity against Escherichia coli ATCC 25922
Staphylococcus aureus [1] = assay: Antibacterial activity against Staphylococcus aureus SA87 isolate; conditions: Staphylococcus aureus; read-out: MIC
Staphylococcus aureus [2] = assay: Antibacterial activity against Staphylococcus aureus SA85 isolate
Staphylococcus aureus [3] = assay: Antibacterial activity against Staphylococcus aureus ATCC 105487
[4] = tested on: Mycobacterium tuberculosis; assay: Antibacterial activity against Mycobacterium tuberculosis H37Rv by dilution method; conditions: Mycobacterium tuberculosis, H37Rv; read-out: MIC
Staphylococcus aureus [5] = assay: Antibacterial activity against Staphylococcus aureus ATCC 25923
Enterococcus faecalis = assay: Antibacterial activity against Enterococcus faecalis ATCC 29212
Staphylococcus aureus [6] = assay: Antibacterial activity against Staphylococcus aureus SA52 isolate
[7] = tested on: Mycobacterium tuberculosis; assay: Antibacterial activity against Mycobacterium tuberculosis H160 by dilution method; conditions: Mycobacterium tuberculosis, H160; read-out: MIC
[8] = tested on: Mycobacterium tuberculosis; assay: Antibacterial activity against Mycobacterium tuberculosis H190 by dilution method
Bacillus subtilis = assay: Antibacterial activity against Bacillus subtilis ATCC 6633; conditions: Bacillus subtilis, ATCC 6633; read-out: MIC

| SMILES | MIC (Kluyveromyces marxianus) | MIC (Pseudomonas aeruginosa) | MIC (Candida albicans) | MIC (Escherichia coli) | MIC (Staphylococcus aureus [1]) | MIC (Staphylococcus aureus [2]) | MIC (Staphylococcus aureus [3]) | MIC [4] | MIC (Staphylococcus aureus [5]) | MIC (Enterococcus faecalis) | MIC (Staphylococcus aureus [6]) | MIC [7] | MIC [8] | MIC (Bacillus subtilis) |
| --- | --- | --- | --- | --- | --- | --- | --- | --- | --- | --- | --- | --- | --- | --- |
| CCCCCCCC(=O)OCC(CO[C@@H]1O[C@H](CO)[C@H](O)[C@H](O)[C@H]1O)OC(=O)CCCCCCC (some centres not stated) | > 128 µg/mL | > 128 µg/mL | > 128 µg/mL | > 128 µg/mL | 32 µg/mL (≈ 63.2 µM) | 32 µg/mL (≈ 63.2 µM) | 32 µg/mL (≈ 63.2 µM) | 128 µg/mL (≈ 253 µM) | 32 µg/mL (≈ 63.2 µM) | 32 µg/mL (≈ 63.2 µM) | > 128 µg/mL | 128 µg/mL (≈ 253 µM) | 128 µg/mL (≈ 253 µM) | 32 µg/mL (≈ 63.2 µM) |
| CCCCCCCCCC(=O)OCC(CO[C@@H]1O[C@H](CO)[C@H](O)[C@H](O)[C@H]1O)OC(=O)CCCCCCCCC (some centres not stated) | > 128 µg/mL | > 128 µg/mL | > 128 µg/mL | > 128 µg/mL | 128 µg/mL (≈ 227 µM) | 32 µg/mL (≈ 56.9 µM) | > 128 µg/mL | 128 µg/mL (≈ 227 µM) | 32 µg/mL (≈ 56.9 µM) | > 128 µg/mL | > 128 µg/mL | 64 µg/mL (≈ 114 µM) | 64 µg/mL (≈ 114 µM) | > 128 µg/mL |
| CC/C=C\C/C=C\C/C=C\CCCCCCCC(=O)OCC(CO[C@@H]1O[C@H](CO)[C@@H](O)[C@H](O)[C@H]1O)OC(=O)CCCCCCC/C=C\C/C=C\C/C=C\CC (some centres not stated) | > 128 µg/mL | > 128 µg/mL | > 128 µg/mL | > 128 µg/mL | > 128 µg/mL | > 128 µg/mL | > 128 µg/mL | > 128 µg/mL | > 128 µg/mL | > 128 µg/mL | > 128 µg/mL | > 128 µg/mL | > 128 µg/mL | > 128 µg/mL |
| CCCCCCCCCCCCCC(=O)OCC(CO[C@@H]1O[C@H](CO)[C@H](O)[C@H](O)[C@H]1O)OC(=O)CCCCCCCCCCCCC (some centres not stated) | > 128 µg/mL | > 128 µg/mL | > 128 µg/mL | > 128 µg/mL | > 128 µg/mL | > 128 µg/mL | > 128 µg/mL | > 128 µg/mL | > 128 µg/mL | > 128 µg/mL | > 128 µg/mL | > 128 µg/mL | > 128 µg/mL | > 128 µg/mL |
| CCCCCCCCCCCCCCCCCC(=O)OCC(CO[C@@H]1O[C@H](CO)[C@H](O)[C@H](O)[C@H]1O)OC(=O)CCCCCCCCCCCCCCCCC (some centres not stated) | > 128 µg/mL | > 128 µg/mL | > 128 µg/mL | > 128 µg/mL | > 128 µg/mL | > 128 µg/mL | > 128 µg/mL | > 128 µg/mL | > 128 µg/mL | > 128 µg/mL | > 128 µg/mL | > 128 µg/mL | > 128 µg/mL | > 128 µg/mL |
| CCCCCCCCCCCC(=O)OCC(CO[C@@H]1O[C@H](CO)[C@H](O)[C@H](O)[C@H]1O)OC(=O)CCCCCCCCCCC (some centres not stated) | > 128 µg/mL | > 128 µg/mL | > 128 µg/mL | > 128 µg/mL | > 128 µg/mL | > 128 µg/mL | > 128 µg/mL | > 128 µg/mL | > 128 µg/mL | > 128 µg/mL | > 128 µg/mL | > 128 µg/mL | > 128 µg/mL | > 128 µg/mL |
| CCCCCCCC/C=C\CCCCCCCC(=O)OCC(CO[C@@H]1O[C@H](CO)[C@@H](O)[C@H](O)[C@H]1O)OC(=O)CCCCCCC/C=C\CCCCCCCC (some centres not stated) | > 128 µg/mL | > 128 µg/mL | > 128 µg/mL | > 128 µg/mL | > 128 µg/mL | > 128 µg/mL | > 128 µg/mL | > 128 µg/mL | > 128 µg/mL | > 128 µg/mL | > 128 µg/mL | > 128 µg/mL | > 128 µg/mL | > 128 µg/mL |
| CC/C=C\C/C=C\C/C=C\CCCCCCCC(=O)OC[C@H](CO[C@@H]1O[C@H](CO)C(O)[C@H](O)[C@H]1O)OC(=O)CCCCCCC/C=C\C/C=C\C/C=C\CC (single isomer, unassigned) | > 128 µg/mL | > 128 µg/mL | > 128 µg/mL | > 128 µg/mL | > 128 µg/mL | > 128 µg/mL | > 128 µg/mL | > 128 µg/mL | 128 µg/mL (≈ 165 µM) | > 128 µg/mL | > 128 µg/mL | > 128 µg/mL | > 128 µg/mL | > 128 µg/mL |
